ChEMBL document CHEMBL1146108, “Discovery of novel and selective tertiary alcohol containing inhibitors of the norepinephrine transporter” (Bioorg Med Chem Lett, 2006)
pKi: −log10 of the molar value. Several values for one entry are separate records, joined by “and”; a condition that tells them apart may be missing. Equal entries are not always repeated.

Tests used:
[1] = molecular target: T1, Sodium-dependent noradrenaline transporter (Homo sapiens, UniProt P23975); test: Binding affinity to NET
T1 sequence (P23975 whole entry): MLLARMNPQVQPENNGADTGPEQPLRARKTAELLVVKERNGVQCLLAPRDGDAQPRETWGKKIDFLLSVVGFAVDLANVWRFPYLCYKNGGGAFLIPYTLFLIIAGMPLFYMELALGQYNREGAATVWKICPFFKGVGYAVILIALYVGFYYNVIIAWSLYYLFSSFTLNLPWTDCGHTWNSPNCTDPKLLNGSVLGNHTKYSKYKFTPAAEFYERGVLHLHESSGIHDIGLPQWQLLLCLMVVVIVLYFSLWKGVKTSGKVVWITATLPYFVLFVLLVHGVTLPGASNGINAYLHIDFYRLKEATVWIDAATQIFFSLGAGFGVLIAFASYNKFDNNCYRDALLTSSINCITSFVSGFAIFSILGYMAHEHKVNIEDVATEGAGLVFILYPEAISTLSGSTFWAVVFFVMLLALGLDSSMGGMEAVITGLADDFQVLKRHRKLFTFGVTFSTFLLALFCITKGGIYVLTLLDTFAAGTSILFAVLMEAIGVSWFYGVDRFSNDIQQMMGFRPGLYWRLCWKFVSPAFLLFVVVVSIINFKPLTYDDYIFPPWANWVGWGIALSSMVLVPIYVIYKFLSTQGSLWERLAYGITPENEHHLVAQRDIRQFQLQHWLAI

[2] = molecular target: Sodium-dependent dopamine transporter (Homo sapiens) (UniProt Q01959); test: Displacement of […] from DAT at 1000 nM
Chain of Sodium-dependent dopamine transporter (Homo sapiens) (Q01959 whole entry): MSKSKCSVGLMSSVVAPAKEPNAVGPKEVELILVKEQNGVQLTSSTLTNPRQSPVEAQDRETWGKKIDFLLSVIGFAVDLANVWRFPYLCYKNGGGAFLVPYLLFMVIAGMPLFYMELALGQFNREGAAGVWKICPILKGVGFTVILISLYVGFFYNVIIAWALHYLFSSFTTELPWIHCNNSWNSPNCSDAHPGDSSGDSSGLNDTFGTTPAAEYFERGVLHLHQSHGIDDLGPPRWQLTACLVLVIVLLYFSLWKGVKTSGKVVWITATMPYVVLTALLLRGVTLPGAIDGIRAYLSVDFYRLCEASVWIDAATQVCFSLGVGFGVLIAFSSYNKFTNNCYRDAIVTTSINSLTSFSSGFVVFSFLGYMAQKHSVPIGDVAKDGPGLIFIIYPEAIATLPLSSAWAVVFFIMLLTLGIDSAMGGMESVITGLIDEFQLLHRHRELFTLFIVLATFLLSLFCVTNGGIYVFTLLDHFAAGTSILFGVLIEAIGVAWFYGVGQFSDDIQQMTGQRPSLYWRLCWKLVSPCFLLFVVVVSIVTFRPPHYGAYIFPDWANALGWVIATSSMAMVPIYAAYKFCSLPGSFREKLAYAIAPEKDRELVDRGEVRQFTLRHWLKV

[3] = molecular target: Sodium-dependent serotonin transporter (Homo sapiens) (UniProt P31645); test: Displacement of [3H]5-HT from SERT at 100 nM
Chain of Sodium-dependent serotonin transporter (Homo sapiens) (P31645 whole entry, looked up): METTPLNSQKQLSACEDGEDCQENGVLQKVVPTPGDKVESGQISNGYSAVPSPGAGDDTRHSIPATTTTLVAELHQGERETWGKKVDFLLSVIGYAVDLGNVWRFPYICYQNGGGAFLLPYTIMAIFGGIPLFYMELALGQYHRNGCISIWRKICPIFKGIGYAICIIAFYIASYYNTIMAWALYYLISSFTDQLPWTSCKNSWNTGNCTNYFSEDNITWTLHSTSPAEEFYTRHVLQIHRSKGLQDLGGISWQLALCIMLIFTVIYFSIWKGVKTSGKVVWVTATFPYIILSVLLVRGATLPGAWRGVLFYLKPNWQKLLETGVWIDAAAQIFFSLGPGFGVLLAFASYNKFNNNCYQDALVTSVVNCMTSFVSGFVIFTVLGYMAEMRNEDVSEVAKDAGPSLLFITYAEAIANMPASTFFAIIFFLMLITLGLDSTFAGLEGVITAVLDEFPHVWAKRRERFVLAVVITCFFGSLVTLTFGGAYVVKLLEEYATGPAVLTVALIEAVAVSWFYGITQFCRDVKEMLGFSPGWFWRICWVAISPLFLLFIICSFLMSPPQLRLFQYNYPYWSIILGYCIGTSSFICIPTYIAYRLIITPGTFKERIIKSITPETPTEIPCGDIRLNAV

[4] = molecular target: T1, Sodium-dependent noradrenaline transporter; test: Binding affinity to NET at 100 nM
Liver microsomes [5] = test: Stability in human liver microsome; type: ADME
Canis familiaris = organism: Canis familiaris; test: Stability in dog liver microsome; type: ADME, Canis lupus familiaris
Liver microsomes [6] = test: Stability in rat liver microsome; type: ADME
Rattus norvegicus [7] = test: Ability to block alpha-MMT-induced depletion of cortical norepinephrine concentration in orally dosed Sprague-Dawley rat; type: functional; settings: po
Rattus norvegicus [8] = test: Ability to block alpha-MMT-induced depletion of cortical norepinephrine concentration in Sprague-Dawley rat at 3 mg/kg, sc; type: functional; settings: route subcutaneous

pKi [1] | inhibition [2] | inhibition [3] | SMILES | also measured
6.79 | – | – | COc1ccccc1C[C@@](O)(c1ccccc1)[C@@H]1CNCCO1 [listing 1 of 3 here] | –
7.25 | – | – | COc1ccccc1C[C@@](O)(c1ccccc1)[C@@H]1CNCCO1 [listing 2 of 3 here] | –
7.92 | 24.1% | 13% | O[C@](Cc1ccccc1Br)(c1ccccc1)[C@@H]1CNCCO1 | –
– | 4.7% and 3.8% and 3.7% | 5% and 5.5% and 1.4% | COc1ccccc1C[C@@](O)(c1ccccc1)[C@@H]1CNCCO1 [listing 3 of 3 here] | –
8.11 | 5.1% | 2.7% | CC(C)Oc1ccccc1C[C@@](O)(c1ccccc1)[C@@H]1CNCCO1 | –
6.81 | – | – | COc1ccccc1C[C@@](O)(c1ccccc1)[C@@H]1CNCCO1 (single isomer, unassigned; isomer 2) [listing 1 of 2 here] | –
– | 6.2% | 4.3% | COc1ccc(C[C@@](O)(c2ccccc2)[C@@H]2CNCCO2)cc1 | inhibition [4]: 25.2%
8.43 | 2.9% | 3% | O[C@](Cc1ccccc1-c1ccccc1)(c1ccccc1)[C@@H]1CNCCO1 (single isomer, unassigned) | –
– | 4.3% | 2.8% | COc1cccc(C[C@@](O)(c2ccccc2)[C@@H]2CNCCO2)c1 | inhibition [4]: 19.8%
7.26 | 6.2% | 14.8% | O[C@](Cc1ccccc1SC(F)(F)F)(c1ccccc1)[C@@H]1CNCCO1 | –
7.52 | 20.8% | 4.6% | O[C@](Cc1ccccc1Cl)(c1ccccc1)[C@@H]1CNCCO1 | –
– | 4.6% | 0.3% | COc1ccccc1C[C@@](O)(c1ccccc1)[C@@H]1CNCCO1 (single isomer, unassigned; isomer 2) [listing 2 of 2 here] | –
8.28 | 3.8% | 2.4% | CCOc1ccccc1C[C@@](O)(c1ccccc1)[C@@H]1CNCCO1 | –
8.49 | – | – | COc1ccccc1C[C@@](O)(c1ccccc1)[C@@H]1CNCCO1.Cl.Cl.Cl | Stability (Liver microsomes [5]): 98%; Stability (Canis familiaris): 60%; Stability (Liver microsomes [6]): 0%; ED50 (Rattus norvegicus [7]): 18 mg/kg; Activity (Rattus norvegicus [8]): 70%

SMILES | pKi [1] | inhibition [2] | inhibition [3] | also measured
O[C@](Cc1ccccc1)(c1ccccc1)[C@@H]1CNCCO1 | 6.83 | 5.5% | 4.2% | –
